Reference: patent US20210379009A1, “ANTIBACTERIAL AGENT AGAINST ENTEROBACTERIUM WHICH CONTAINS EQUOL AS ACTIVE INGREDIENT” (priority 2018, published 2021)

Columns and labels:
Assay type in all cases: cell-based
[1] = test system: Clostridioides perfringens (C. perfringens (Clostridium perfringens)); conditions: 100 μg/mL; FIG. 4
[2] = test system: Clostridioides difficile (NAP1/027 strain); assay: Growth inhibition on Clostridioides difficile NAP1/027 strain (OD600); conditions: for inhibition of the growth of Clostridioides difficile versus control: FIG. 2
Procedure: Clostridioides difficile (NAP1/027 strain) was added to a medium containing equol in a concentration of 100 μg/mL, 75 μg/mL, 50 μg/mL, or 25 μg/mL (0 hour), and subsequently cultured to check the influence on the growth for 24 hours after the start of culture. The culture performed was totally under anaerobic conditions at 35° C.
Because equol dissolved in DMSO was used, a medium with addition only of DMSO was additionally subjected to measurement as a control.
The growth of the bacterium was examined by measuring the absorbance of each medium at 600 nm (OD600).
Equol is a final product generated from daidzin through daidzein and dihydrodaidzein. Inhibition of the growth of Clostridioides difficile by equol (100 μg/mL, 50 μg/mL), daidzein (50 μg/mL), and dihydrodaidzein (100 μg/mL, 50 μg/mL) was measured in the same manner as in Example 1.

[3] = test system: Bacteroides fragilis (B. fragilis); assay: Growth inhibition on other bacterial species: Bacteroides fragilis; conditions: 100 μg/mL
[4] = test system: Clostridioides difficile (NAP1/027 strain); assay: Influence on form of Clostridioides difficile (Gram staining); conditions: 100 μg/mL; after 8-day culture; FIG. 5
Procedure: The influence of equol on the form of Clostridioides difficile (NAP1/027 strain) was validated through staining of Clostridioides difficile with Gram staining under the action of equol (100 μg/mL) in the same manner as in Example 1.

[5] = test system: Escherichia coli (E. coli); assay: Growth inhibition on other bacterial species: Escherichia coli; conditions: 100 μg/mL; FIG. 4
[6] = test system: Clostridioides difficile; assay: Inhibition of sporulation of Clostridioides difficile (spore count); conditions: 100 μg/mL; added to medium grown to a saturated state; from day 2; FIG. 6
Procedure: To validate the influence of equol (100 μg/mL) on the sporulation of Clostridioides difficile, equol was added to a medium in which Clostridioides difficile had grown to a saturated state, and the number of spores formed was counted.

Row | SMILES | influence on growth of Clostridioides perfringens [1] | inhibition of the growth of Clostridioides difficile versus control ([2]; 50 μg/mL) | inhibition of the growth of Clostridioides difficile versus control ([2]; 100 μg/mL) | concentration dependence of growth inhibition ([2]; equol 25 to 100 μg/mL, FIG. 1) | growth of Clostridioides difficile (OD600) versus control ([2]; equol 100, 75, 50 or 25 μg/mL, 24 hours, anaerobic, 35° C., DMSO control, FIG. 1) | proliferation of Bacteroides fragilis ([3]; 52 hours of the test, FIG. 4) | viability of Bacteroides fragilis after transfer into a medium without equol ([3]; transferred at the end of 52 hours of the test) | form of cells (Gram staining) versus control [4] | influence on growth of Escherichia coli [5] | number of spores formed versus control [6]
1 | Oc1ccc([C@H]2COc3cc(O)ccc3C2)cc1 (stereo in doubt) [equol, 4′,7-isoflavandiol] | An influence was observed | inhibited the growth of Clostridioides difficile to the same degree | an even higher degree of inhibition than them | the inhibition depended on the concentration of equol | slower than that in the control | completely no proliferation | only the growth was inhibited, without killing the bacterium | forms longer and thinner than those of cells in the control | no influence was found | few spores
2 | O=c1c(-c2ccc(O)cc2)coc2cc(O)ccc12 [daidzein, reference compound] |  | no clear difference from the control |  |  |  |  |  |  |  | 
3 | O=C1c2ccc(O)cc2OCC1c1ccc(O)cc1 (stereo not shown) [dihydrodaidzein, reference compound] |  | no clear difference from the control | inhibited the growth of Clostridioides difficile to the same degree |  |  |  |  |  |  | 
